Active and inactive are the calls of the source. The rule behind the calls is not given here.
Tests used:
[1] = Solubility of the compound at pH 1.2 after 2 hrs; assay type: physicochemical; conditions: buffer
[2] = Bioavailability in dog at 0.1 mg/kg, iv and 1 mg/kg, po by LC/MS/MS analysis; assay type: ADME, organism-based, Canis lupus familiaris; conditions: in vivo
[3] = Bioavailability in rat at 0.1 mg/kg, iv and 1 mg/kg, po by LC/MS/MS analysis; assay type: ADME, organism-based; conditions: in vivo
[4] = Solubility of the compound at pH 6.8 after 2 hrs; assay type: physicochemical; conditions: buffer
[5] = Metabolic stability in dog hepatic microsomes assessed per mg of protein at 1 uM; assay type: ADME, Canis lupus familiaris, Liver
[6] = Mean residence time in dog at 1 mg/kg, po by LC/MS/MS analysis; assay type: ADME, organism-based, Canis lupus familiaris; parameters: dose 1 mg/kg, route oral; conditions: in vivo
[7] = Metabolic stability in rat hepatic microsomes assessed per mg of protein at 1 uM; assay type: ADME, Liver
[8] = Metabolic stability in human hepatic microsomes assessed per mg of protein at 1 uM; assay type: ADME, Liver
Dipeptidyl peptidase 2 = Dipeptidyl peptidase 2 (Rattus norvegicus, UniProt Q9EPB1); assay: Inhibition of rat kidney DDP2 after 60 mins by spectrophotometry
Dipeptidyl peptidase 8 = Dipeptidyl peptidase 8 (Homo sapiens, UniProt Q6V1X1); assay: Inhibition of human DDP8 expressed in HEK293-F cells after 90 mins by spectrophotometry; assay type: cell-based
[9] = Mean residence time in rat at 1 mg/kg, po by LC/MS/MS analysis; assay type: ADME, organism-based; parameters: dose 1 mg/kg, route oral; conditions: in vivo
Canis familiaris [10] = assay: Ex vivo inhibition of DDP4 in dog plasma at 0.5 mg/kg, po after 24 hrs; assay type: functional; conditions: Canis lupus familiaris
Canis familiaris [11] = species: Canis familiaris; conditions: Canis lupus familiaris; Plasma; 0.5 mg/kg
Description: Ex vivo inhibition of DDP4 in dog plasma at 0.5 mg/kg, po up to 1 hr

Sequence of Dipeptidyl peptidase 2 (Q9EPB1 whole entry): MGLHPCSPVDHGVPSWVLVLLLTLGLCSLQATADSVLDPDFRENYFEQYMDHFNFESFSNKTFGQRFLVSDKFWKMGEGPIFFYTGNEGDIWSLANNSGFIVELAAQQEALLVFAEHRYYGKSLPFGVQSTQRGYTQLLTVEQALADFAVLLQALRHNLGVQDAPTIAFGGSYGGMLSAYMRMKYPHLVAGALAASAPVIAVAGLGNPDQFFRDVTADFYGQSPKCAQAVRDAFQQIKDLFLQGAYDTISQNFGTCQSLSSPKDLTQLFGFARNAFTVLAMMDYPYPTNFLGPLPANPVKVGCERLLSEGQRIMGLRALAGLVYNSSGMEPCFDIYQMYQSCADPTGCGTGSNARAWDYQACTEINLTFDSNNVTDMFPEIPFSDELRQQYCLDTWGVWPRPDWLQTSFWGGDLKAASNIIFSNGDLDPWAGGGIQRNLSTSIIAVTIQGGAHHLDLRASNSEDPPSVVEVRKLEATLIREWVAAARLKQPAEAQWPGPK
Sequence of Dipeptidyl peptidase 8 (Q6V1X1 whole entry): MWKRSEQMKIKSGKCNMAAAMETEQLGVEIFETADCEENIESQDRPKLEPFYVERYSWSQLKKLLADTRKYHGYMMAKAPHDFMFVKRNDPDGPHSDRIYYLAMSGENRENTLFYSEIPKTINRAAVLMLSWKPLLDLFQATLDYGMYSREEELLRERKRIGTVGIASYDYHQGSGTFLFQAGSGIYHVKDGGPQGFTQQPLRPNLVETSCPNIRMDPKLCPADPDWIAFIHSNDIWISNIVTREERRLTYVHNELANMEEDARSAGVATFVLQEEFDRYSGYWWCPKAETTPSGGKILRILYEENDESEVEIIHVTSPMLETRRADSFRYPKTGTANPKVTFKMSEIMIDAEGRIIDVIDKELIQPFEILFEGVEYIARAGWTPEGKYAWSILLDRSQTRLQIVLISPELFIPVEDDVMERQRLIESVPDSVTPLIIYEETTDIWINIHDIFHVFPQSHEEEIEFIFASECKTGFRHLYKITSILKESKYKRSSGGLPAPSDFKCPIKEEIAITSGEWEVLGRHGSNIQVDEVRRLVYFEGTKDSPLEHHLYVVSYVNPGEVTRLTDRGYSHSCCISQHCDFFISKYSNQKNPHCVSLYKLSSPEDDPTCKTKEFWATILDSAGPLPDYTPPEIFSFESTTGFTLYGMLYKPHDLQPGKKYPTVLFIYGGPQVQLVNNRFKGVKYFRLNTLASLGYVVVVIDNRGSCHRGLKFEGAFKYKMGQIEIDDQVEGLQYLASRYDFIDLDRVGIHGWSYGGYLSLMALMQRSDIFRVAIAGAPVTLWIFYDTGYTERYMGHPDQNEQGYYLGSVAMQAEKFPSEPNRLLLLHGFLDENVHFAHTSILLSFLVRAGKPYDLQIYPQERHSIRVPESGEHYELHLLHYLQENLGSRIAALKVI

`Cc1ccc(-c2c(CC(=O)N3CCC[C@H]3C(N)=O)c(C)nc(CC(C)C)c2CN)cc1.Cl.Cl` showed a solubility at 2 h [1] of 86 µg/mL, a bioavailability [2] of 21.3% and a bioavailability [3] of 4.9%. It also gave a solubility at 2 h [4] of 71 µg/mL, a Stability [5] of 2 µL/min and an MRT [6] of 4.35 h. The Stability [7] was under 1 µL/min, the Stability [8] was 4 µL/min and the IC50 (Dipeptidyl peptidase 2) was over 100 µM. It also gave an IC50 (Dipeptidyl peptidase 8) of over 30 µM, an MRT [9] of 11.2 h and an inhibition in vivo at 0.5 mg/kg (Canis familiaris [10]) of 90%. For the same molecule, the inhibition (Canis familiaris [11]) was “Active”.

Source: ChEMBL document CHEMBL1641432, “Design and synthesis of 3-pyridylacetamide derivatives as dipeptidyl peptidase IV (DPP-4) inhibitors targeting a bidentate interaction with Arg125” (Bioorg Med Chem, 2011)
